Results taken from BindingDB's records for doi:10.1021/jm00041a005 (Agouron Pharmaceuticals, 1994).

These molecules were tested against T1, Dimer of Gag-Pol polyprotein [489-587] (Human immunodeficiency virus 1, UniProt P12497) (assay: Protease Inhibition Assay). Details: pH 5.5; 37 °C.
T1 construct: 489-587
Procedure: Protease activity was measured by continuous chromogenic assay. The chromogenic peptide His-Lys-Ala-Arg-Val-Leu- (p-NO2-Phe)-Glu-Ala-Nleu-Ser (Bachem) was used as a substrate. Reactions were followed by the decrease of absorbance at 300 nm measured by spectrophotometer. Experimental results were analyzed by the nonlinear regression analysis, using a mathematical model for tight binding inhibitors.
In the case of NC(=O)C[C@H](NC(=O)c1ccc2ccccc2n1)C(=O)N[C@@H](Cc1ccccc1)[C@@H](O)C[C@@H](Cc1ccccc1)C(=O)NC(c1ccccc1)c1cc2ccccc2[nH]1 (stereo partly drawn) [2 -Benzyl-4-h ydrox y-5((N -2-quinaloyl-L-asparagyl)amidno)-6-phenylhexanoic Acid (a-(2-indolylbenzyl)amide], the Ki is reported as 1280 nM. In the case of NC(=O)C[C@H](NC(=O)c1ccc2ccccc2n1)C(=O)N[C@@H](Cc1ccccc1)[C@@H](O)CCC(=O)NC(c1ccccc1)c1nc2ccccc2[nH]1 (stereo partly drawn) [4-Hydroxy-5-( (N-2-quinaloyl-L-asparagyl)amino)-6-phenylhexanoic Acid (a-(2-benzyimidazolyl)benzyl)amide], the Ki is reported as 480 nM. For Cc1cccc(C(NC(=O)CC[C@H](O)[C@H](Cc2ccccc2)NC(=O)[C@H](CC(N)=O)NC(=O)c2ccc3ccccc3n2)c2cc3ccccc3[nH]2)c1 (stereo partly drawn) [4-Hydroxy-5-((N-2-quinaloyl-L-asparagyl)amino)-6-phenylhexanoic Acid (a-(2-indolyl)-m-methylbenzyl)amide], the Ki was 39 nM. C[C@H](N)C(=O)N[C@@H](C)C(=O)N[C@@H](Cc1ccccc1)[C@@H](O)CCC(=O)NC(c1ccccc1)c1nc2ccccc2[nH]1 (stereo partly drawn) [5-(L-Alanyl-L-alanylamino)-4-hydroxy-phenylhexanoic Acid ((1H-BenzimiaazOl-2-yl)phenylmethyl)amide] gave a Ki of 5370 nM. Work on NC(=O)C[C@H](NC(=O)c1ccc2ccccc2n1)C(=O)N[C@@H](Cc1ccccc1)[C@@H](O)CCC(=O)NC(c1cccc(C(F)(F)F)c1)c1cc2ccccc2[nH]1 (stereo partly drawn) [(2S)-N-[(2S,3S)-3-hydroxy-5-({1H-indol-2-yl[3-(trifluoromethyl)phenyl]methyl}carbamoyl)-1-phenylpentan-2-yl]-2-(quinolin-2-ylformamido)butanediamide] yielded a Ki of 33 nM. Molecule NC(=O)C[C@H](NC(=O)c1ccc2ccccc2n1)C(=O)N[C@@H](Cc1ccccc1)[C@@H](O)CCC(=O)NC(c1ccccc1)c1cc2ccccc2[nH]1 (stereo partly drawn) [(2S)-N-[(2S,3S)-3-hydroxy-5-{[1H-indol-2-yl(phenyl)methyl]carbamoyl}-1-phenylpentan-2-yl]-2-(quinolin-2-ylformamido)butanediamide] has a Ki of 43 nM. NC(=O)C[C@H](NC(=O)c1ccc2ccccc2n1)C(=O)N[C@@H](Cc1ccccc1)[C@@H](O)CCC(=O)NC(c1cc2ccccc2[nH]1)C1CCCCC1 (stereo partly drawn) [(2S)-N-[(2S,3S)-5-{[cyclohexyl(1H-indol-2-yl)methyl]carbamoyl}-3-hydroxy-1-phenylpentan-2-yl]-2-(quinolin-2-ylformamido)butanediamide] gave a Ki of 180 nM. COC(=O)[C@@H](NC(=O)[C@@H](NC(=O)CC[C@H](O)[C@H](Cc1ccccc1)NC(=O)[C@H](C)NC(=O)[C@H](C)N)C(C)C)C(C)C [methyl (2S)-2-[(2S)-2-[(4S,5S)-5-[(2S)-2-[(2S)-2-aminopropanamido]propanamido]-4-hydroxy-6-phenylhexanamido]-3-methylbutanamido]-3-methylbutanoate] showed a Ki of 18 nM.
